What was measured:
[1] = Pharmacokinetics in plasma and lung in mouse; assay type: in vivo; conditions: oral aspiration, ratio of lung exposure to plasma exposure
[2] = test system: IL-13 induced pSTAT6 in lung tissue; assay: Murine model of IL-13 induced pSTAT6 induction in lung tissue; assay type: in vivo; conditions: mouse lung, oral aspiration 1 mg/mL 50 μL, IL-13 challenge 4 h post dose, pSTAT6 at 5 hours
Experimental: IL-13 is an important cytokine underlying the pathophysiology of asthma (Kudlacz et al. Eur. J. Pharmacol, 2008, 582, 154-161). IL-13 binds to cell surface receptors activating members of the Janus family of kinases (JAK) which then phosphorylate STAT6 and subsequently activates further transcription pathways. In the described model, a dose of IL-13 was delivered locally into the lungs of mice to induce the phosphorylation of STAT6 (pSTAT6) which is then measured as the endpoint.
Adult balb/c mice from Harlan were used in the assay. On the day of study, animals were lightly anesthetized with isoflurane and administered either vehicle or test compound (1 mg/mL, 50 μL total volume over several breaths) via oral aspiration. Animals were placed in lateral recumbency post dose and monitored for full recovery from anesthesia before being returned to their home cage. Four hours later, animals were once again briefly anesthetized and challenged with either vehicle or IL-13 (0.03 μg total dose delivered, 50 μL total volume) via oral aspiration before being monitored for recovery from anesthesia and returned to their home cage. One hour after vehicle or IL-13 administration, lungs were collected for both pSTAT6 detection using an anti-pSTAT6 ELISA (rabbit mAb capture/coating antibody; mouse mAb detection/report antibody: anti-pSTAT6-pY641; secondary antibody: anti-mouse IgG-HRP) and analyzed for total drug concentration as described above in Assay 3.
Selected compounds of the invention were tested in the assay. Activity in the model is evidenced by a decrease in the level of pSTAT6 present in the lungs of treated animals at 5 hours compared to the vehicle treated, IL-13 challenged control animals. The difference between the control animals which were vehicle-treated, IL-13 challenged and the control animals which were vehicle-treated, vehicle challenged dictated the 0% and 100% inhibitory effect, respectively, in any given experiment.

[3] = test system: IL-13 induced STAT6 phosphorylation in BEAS-2B human lung epithelial cells; assay: Cellular JAKI potency assay (AlphaScreen, BEAS-2B); assay type: cell-based; conditions: BEAS-2B cells
Experimental: The AlphaScreen JAKI cellular potency assay was carried out by measuring interleukin-13 (IL-13, R&D Systems) induced STAT6 phosphorylation in BEAS-2B human lung epithelial cells (ATCC). The anti-STAT6 antibody (Cell Signaling Technologies) was conjugated to AlphaScreen acceptor beads (Perkin Elmer), while the anti-pSTAT6 (pTyr641) antibody (Cell Signaling Technologies) was biotinylated using EZ-Link Sulfo-NHS-Biotin (Thermo Scientific).
BEAS-2B cells were grown at 37° C. in a 5% CO2 humidified incubator in 50% DMEM/50% F-12 medium (Life Technologies) supplemented with 10% FBS (Hyclone), 100 U/mL penicillin, 100 μg/mL streptomycin (Life Technologies), and 2 mM GlutaMAX (Life Technologies). On day 1 of the assay, cells were seeded at a 7,500 cells/well density in white poly-D-lysine-coated 384-well plates (Corning) with 25 μL medium, and were allowed to adhere overnight in the incubator. On day 2 of the assay, the medium was removed and replaced with 12 μL of assay buffer (Hank's Balanced Salt Solution/HBSS, 25 mM HEPES, and 1 mg/ml bovine serum albumin/BSA) containing dose-responses of test compounds. Compounds were serially diluted in DMSO and then diluted another 1000-fold in media to bring the final DMSO concentration to 0.1%. Cells were incubated with test compounds at 37° C. for 1 h, and followed by the addition of 12 μl of pre-warmed IL-13 (80 ng/mL in assay buffer) for stimulation. After incubating at 37° C. for 30 min, the assay buffer (containing compound and IL-13) was removed, and 10 μL of cell lysis buffer (25 mM HEPES, 0.1% SDS, 1% NP-40, 5 mM MgCl2, 1.3 mM EDTA, 1 mM EGTA, and supplement with Complete Ultra mini protease inhibitors and PhosSTOP from Roche Diagnostics). The plates were shaken at ambient temperature for 30 min before the addition of detection reagents. A mixture of biotin-anti-pSTAT6 and anti-STAT6 conjugated acceptor beads was added first and incubated at ambient temperature for 2 h, followed by the addition of streptavidin conjugated donor beads (Perkin Elmer). After a minimum of 2 h incubation, the assay plates were read on the EnVision plate reader. AlphaScreen luminescence signals were recorded and utilized to calculate the percent inhibition values based on DMSO and background controls.
For dose-response analysis, percent inhibition data were plotted vs. compound concentrations, and IC50 values were determined from a 4-parameter robust fit model with the Prism software. Results may also be expressed as the negative logarithm of the IC50 value, pIC50.
Test compounds having a lower IC50 value or higher pIC50 value in this assay show greater inhibition of IL-13 induced STAT6 phosphorylation.

JAK1 = JAK1 (Homo sapiens (Human), UniProt P23458); assay: Biochemical JAK kinase assay (LanthaScreen), JAK1
Sequence of JAK1 (P23458 whole entry): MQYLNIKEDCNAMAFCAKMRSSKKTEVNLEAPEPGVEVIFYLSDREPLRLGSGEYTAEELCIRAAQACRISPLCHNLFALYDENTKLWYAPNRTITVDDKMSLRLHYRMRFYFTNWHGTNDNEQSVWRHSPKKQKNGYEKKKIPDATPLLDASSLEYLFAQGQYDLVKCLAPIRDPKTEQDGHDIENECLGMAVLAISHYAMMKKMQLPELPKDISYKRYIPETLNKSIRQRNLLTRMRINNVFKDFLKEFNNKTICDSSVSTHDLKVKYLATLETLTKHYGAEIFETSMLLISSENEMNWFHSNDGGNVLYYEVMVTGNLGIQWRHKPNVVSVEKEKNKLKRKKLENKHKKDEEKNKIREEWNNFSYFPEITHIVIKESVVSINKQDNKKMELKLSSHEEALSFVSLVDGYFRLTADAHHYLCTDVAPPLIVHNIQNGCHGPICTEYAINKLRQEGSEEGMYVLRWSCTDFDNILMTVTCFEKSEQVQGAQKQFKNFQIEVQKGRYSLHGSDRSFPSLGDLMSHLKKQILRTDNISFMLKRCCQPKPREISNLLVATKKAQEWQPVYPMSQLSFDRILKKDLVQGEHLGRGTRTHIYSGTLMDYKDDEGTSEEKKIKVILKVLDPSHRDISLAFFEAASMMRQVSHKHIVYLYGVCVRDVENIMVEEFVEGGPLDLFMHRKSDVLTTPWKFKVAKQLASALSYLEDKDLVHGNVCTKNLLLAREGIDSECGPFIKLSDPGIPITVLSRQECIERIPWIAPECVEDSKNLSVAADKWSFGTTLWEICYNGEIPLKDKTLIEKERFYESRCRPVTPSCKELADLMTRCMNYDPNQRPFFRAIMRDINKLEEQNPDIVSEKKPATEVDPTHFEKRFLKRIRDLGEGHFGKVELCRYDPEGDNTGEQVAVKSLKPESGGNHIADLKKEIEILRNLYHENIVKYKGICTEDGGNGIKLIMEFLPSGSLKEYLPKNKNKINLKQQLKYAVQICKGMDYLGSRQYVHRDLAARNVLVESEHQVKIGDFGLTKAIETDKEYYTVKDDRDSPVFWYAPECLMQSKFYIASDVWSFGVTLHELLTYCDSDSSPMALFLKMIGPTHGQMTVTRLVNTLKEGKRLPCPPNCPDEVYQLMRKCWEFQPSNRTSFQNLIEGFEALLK
Experimental: (§1) A panel of four LanthaScreen JAK biochemical assays (JAK1, 2, 3 and Tyk2) were carried in a common kinase reaction buffer (50 mM HEPES, pH 7.5, 0.01% Brij-35, 10 mM MgCl2, and 1 mM EGTA). Recombinant GST-tagged JAK enzymes and a GFP-tagged STAT1 peptide substrate were obtained from Life Technologies.
(§2) Serially diluted compounds were pre-incubated with each of the four JAK enzymes and the substrate in white 384-well microplates (Corning) at ambient temperature for 1 h. ATP was subsequently added to initiate the kinase reactions in 10 μL total volume, with 1% DMSO. […] The plates were allowed to incubate at ambient temperature for 1 h before being read on the EnVision reader (Perkin Elmer).
(§3) For dose-response analysis, percent inhibition data were plotted vs. compound concentrations, and IC50 values were determined from a 4-parameter robust fit model with the Prism software (GraphPad Software). Results were expressed as pIC50 (negative logarithm of IC50) and subsequently converted to pKi (negative logarithm of dissociation constant, Ki) using the Cheng-Prusoff equation.

[4] = test system: alternaria-induced BALF eosinophils; assay: Murine model of Alternaria alternata-induced eosinophilic inflammation of the lung; assay type: in vivo; conditions: mouse, oropharyngeal aspiration, 48 h after alternaria challenge, maximum statistically significant percent inhibition
Experimental: Airway eosinophilia is a hallmark of human asthma. Alternaria alternata is a fungal aeroallergen that can exacerbate asthma in humans and induces eosinophilic inflammation in the lungs of mice (Havaux et al. Clin Exp Immunol. 2005 February; 139(2):179-88).
Seven- to nine-week old male C57 mice from Taconic were used in the study. On the day of study, animals were lightly anesthetized with isoflurane and administered either vehicle or test compound (0.03-1.0 mg/mL, 50 μL total volume over several breaths) via oropharyngeal aspiration. Animals were placed in lateral recumbency post dose and monitored for full recovery from anesthesia before being returned to their home cage. One hour later, animals were once again briefly anesthetized and challenged with either vehicle or alternaria extract (200 ug total extract delivered, 50 μL total volume) via oropharyngeal aspiration before being monitored for recovery from anesthesia and returned to their home cage. Forty-eight hours after alternaria administration, bronchoalveolar lavage fluid (BALF) was collected and eosinophils were counted in the BALF using the Advia 120 Hematology System (Siemens).
Activity in the model is evidenced by a decrease in the level of eosinophils present in the BALF of treated animals at forty-eight hours compared to the vehicle treated, alternaria challenged control animals. Data are expressed as percent inhibition of the vehicle treated, alternaria challenged BALF eosinophils response. To calculate percent inhibition, the number of BALF eosinophils for each condition is converted to percent of the average vehicle treated, alternaria challenged BALF eosinophils and subtracted from one-hundred percent.

JAK2 = JAK2 (Homo sapiens (Human), UniProt O60674); assay: Biochemical JAK kinase assay (LanthaScreen), JAK2
Sequence of JAK2 (O60674 whole entry): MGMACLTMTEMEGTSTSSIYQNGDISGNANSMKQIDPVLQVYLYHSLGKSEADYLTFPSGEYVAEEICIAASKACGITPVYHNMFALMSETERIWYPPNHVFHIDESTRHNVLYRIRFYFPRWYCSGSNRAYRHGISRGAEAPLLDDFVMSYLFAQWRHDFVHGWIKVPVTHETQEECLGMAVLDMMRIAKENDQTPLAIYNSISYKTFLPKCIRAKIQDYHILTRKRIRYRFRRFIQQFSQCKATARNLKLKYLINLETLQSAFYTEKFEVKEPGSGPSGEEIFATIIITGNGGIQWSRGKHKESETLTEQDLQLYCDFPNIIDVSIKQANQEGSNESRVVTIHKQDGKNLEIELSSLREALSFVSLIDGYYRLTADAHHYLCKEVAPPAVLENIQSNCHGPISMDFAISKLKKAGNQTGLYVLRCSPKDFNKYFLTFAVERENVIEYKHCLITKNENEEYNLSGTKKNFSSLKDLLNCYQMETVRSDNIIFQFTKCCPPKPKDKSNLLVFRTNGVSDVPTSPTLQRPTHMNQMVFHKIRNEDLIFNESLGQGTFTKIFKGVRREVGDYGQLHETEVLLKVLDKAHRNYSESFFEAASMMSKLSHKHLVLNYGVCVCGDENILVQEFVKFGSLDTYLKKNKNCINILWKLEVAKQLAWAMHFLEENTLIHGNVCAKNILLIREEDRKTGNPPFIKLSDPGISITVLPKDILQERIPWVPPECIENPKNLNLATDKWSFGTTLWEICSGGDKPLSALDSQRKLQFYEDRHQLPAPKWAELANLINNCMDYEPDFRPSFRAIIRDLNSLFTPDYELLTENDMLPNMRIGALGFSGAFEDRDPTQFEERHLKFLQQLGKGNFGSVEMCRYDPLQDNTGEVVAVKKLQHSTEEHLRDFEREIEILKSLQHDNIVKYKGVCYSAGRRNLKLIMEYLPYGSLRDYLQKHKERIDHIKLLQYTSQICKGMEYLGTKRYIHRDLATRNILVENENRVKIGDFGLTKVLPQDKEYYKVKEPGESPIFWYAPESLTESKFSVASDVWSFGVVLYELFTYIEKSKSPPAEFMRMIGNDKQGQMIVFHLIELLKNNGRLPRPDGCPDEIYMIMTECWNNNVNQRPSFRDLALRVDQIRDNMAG
Experimental: as §1, §2, §3

Tyk2 = Tyk2 (Homo sapiens (Human), UniProt P29597); assay: Biochemical JAK kinase assay (LanthaScreen), Tyk2
Sequence of Tyk2 (P29597 whole entry): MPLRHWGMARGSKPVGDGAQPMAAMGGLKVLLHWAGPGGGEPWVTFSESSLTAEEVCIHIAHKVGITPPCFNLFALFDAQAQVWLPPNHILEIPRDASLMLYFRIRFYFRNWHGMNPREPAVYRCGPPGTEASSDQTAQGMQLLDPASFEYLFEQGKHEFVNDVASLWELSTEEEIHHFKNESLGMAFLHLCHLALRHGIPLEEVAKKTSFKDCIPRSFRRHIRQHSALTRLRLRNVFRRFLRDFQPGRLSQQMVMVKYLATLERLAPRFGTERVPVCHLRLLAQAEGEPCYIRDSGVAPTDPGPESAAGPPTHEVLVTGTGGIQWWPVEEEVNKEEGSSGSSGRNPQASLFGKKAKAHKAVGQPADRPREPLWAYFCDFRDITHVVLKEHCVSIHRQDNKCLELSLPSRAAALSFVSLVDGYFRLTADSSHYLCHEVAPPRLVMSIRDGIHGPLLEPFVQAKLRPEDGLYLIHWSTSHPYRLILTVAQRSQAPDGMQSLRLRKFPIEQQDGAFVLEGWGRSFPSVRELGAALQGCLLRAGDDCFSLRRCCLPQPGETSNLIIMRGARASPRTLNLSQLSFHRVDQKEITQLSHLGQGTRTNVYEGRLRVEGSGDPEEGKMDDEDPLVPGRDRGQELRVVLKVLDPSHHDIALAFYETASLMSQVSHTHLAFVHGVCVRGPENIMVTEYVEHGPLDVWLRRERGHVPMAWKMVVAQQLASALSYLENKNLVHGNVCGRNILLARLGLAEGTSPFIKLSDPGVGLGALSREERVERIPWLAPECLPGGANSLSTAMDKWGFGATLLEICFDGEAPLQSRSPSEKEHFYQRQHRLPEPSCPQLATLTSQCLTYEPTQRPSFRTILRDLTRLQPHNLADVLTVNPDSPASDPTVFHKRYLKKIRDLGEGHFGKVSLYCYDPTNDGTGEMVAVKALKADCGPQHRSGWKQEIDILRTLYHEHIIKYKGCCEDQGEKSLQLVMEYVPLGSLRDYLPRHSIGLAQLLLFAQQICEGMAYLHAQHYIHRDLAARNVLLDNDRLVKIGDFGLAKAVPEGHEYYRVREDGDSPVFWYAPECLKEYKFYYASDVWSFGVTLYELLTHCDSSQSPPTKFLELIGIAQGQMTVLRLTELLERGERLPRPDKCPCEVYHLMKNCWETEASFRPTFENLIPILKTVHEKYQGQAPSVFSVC
Experimental: as §1, §2, §3

JAK3 = JAK3 (Homo sapiens (Human), UniProt P52333); assay: Biochemical JAK kinase assay (LanthaScreen), JAK3
Sequence of JAK3 (P52333 whole entry): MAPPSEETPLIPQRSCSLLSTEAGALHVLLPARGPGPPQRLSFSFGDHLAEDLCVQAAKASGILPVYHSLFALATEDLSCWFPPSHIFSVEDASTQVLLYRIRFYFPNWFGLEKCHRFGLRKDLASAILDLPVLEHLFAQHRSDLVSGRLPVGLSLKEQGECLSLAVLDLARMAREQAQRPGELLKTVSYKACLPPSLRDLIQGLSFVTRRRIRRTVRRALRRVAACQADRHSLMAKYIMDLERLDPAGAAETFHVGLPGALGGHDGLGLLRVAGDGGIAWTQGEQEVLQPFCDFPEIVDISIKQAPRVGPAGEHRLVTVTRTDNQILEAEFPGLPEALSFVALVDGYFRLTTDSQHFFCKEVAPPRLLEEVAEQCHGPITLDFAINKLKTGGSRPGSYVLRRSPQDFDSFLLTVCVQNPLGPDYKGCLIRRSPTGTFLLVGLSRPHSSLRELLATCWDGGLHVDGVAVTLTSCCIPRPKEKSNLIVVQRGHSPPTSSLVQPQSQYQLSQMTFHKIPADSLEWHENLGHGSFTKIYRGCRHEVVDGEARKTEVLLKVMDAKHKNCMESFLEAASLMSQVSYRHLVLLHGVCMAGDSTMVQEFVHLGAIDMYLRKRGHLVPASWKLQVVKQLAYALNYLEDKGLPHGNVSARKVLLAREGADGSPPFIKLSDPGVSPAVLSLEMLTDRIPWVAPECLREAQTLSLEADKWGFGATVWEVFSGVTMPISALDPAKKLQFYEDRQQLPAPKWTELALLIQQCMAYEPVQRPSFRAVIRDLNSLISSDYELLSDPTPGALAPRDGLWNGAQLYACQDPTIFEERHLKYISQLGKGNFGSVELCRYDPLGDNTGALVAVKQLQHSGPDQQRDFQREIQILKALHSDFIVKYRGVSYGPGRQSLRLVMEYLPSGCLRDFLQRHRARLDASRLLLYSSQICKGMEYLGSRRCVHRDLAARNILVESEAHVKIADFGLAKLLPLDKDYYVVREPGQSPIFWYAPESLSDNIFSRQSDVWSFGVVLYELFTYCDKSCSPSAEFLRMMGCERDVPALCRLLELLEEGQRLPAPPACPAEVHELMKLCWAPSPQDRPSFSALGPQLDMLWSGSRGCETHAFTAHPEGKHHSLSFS
Experimental: as §1, §2, §3

Row | SMILES | Lung to Plasma ratio Assay 3 [1] | pSTAT6 inhibition Assay 4 [2] | IC50 [3] | Ki (JAK1) | Percent Inhibition of Alternaria-induced BALF Eosinophils [4] | Ki (JAK2) | Ki (Tyk2) | Ki (JAK3)
1 | CCCN1Cc2[nH]c(-c3n[nH]c4cc(-c5cc(F)c(O)cc5CC)ccc34)nc2CC1C(=O)N(C)C1CCN(C)CC1 (centres unmarked) [Example 13-2] | A (A denotes a ratio 100-200) | A (A represents between 60% and 80% inhibition) |  |  |  |  |  | 
2 | CCc1cc(O)c(F)cc1-c1ccc2c(-c3nc4c([nH]3)CN(C)[C@H](C(=O)N3CCN(C)C[C@@H]3C)C4)n[nH]c2c1 [Example 2-15] |  | B (B represents between 40% and 60% inhibition) | 4 nM |  |  |  |  | 
3 | CCCN1Cc2[nH]c(-c3n[nH]c4cc(-c5cc(F)c(O)cc5CC)ccc34)nc2CC1C(=O)N(C)C1CCN(C)CC1 (centres unmarked) [Example 13-5] | A (A denotes a ratio 100-200) | C (C represents between 25% and 40% inhibition) |  |  |  |  |  | 
4 | CCc1cc(O)c(F)cc1-c1ccc2c(-c3nc4c([nH]3)CN(C)[C@H](C(=O)N3CCN(CCO)C[C@H]3C)C4)n[nH]c2c1 [Example 6, ((S)-2-(6-(2-ethyl-5-fluoro-4-hydroxyphenyl)-1H-indazol-3-yl)-5-methyl-4,5,6,7-tetrahydro-3H-imidazo[4,5-c]pyridin-6-yl)((R)-4-(2-hydroxyethyl)-2-methyl-piperazin-1-yl)methanone] |  | B (B represents between 40% and 60% inhibition) | 4.2 nM | 0.1 nM | 73 |  |  | 
5 | CCCN1Cc2[nH]c(-c3n[nH]c4cc(-c5cc(F)c(O)cc5CC)ccc34)nc2C[C@@H]1C(=O)N1CC[C@H](N(C)C)C1 [Example 9-21] |  | B (B represents between 40% and 60% inhibition) | 4 nM | 0.06 nM |  | 0.03 nM | 1 nM | 
6 | CCc1cc(O)c(F)cc1-c1ccc2c(-c3nc4c([nH]3)CN(C)C(C(=O)N3CCN(C(C)C)CC3)C4)n[nH]c2c1 (centres unmarked) [Example 1-12] |  |  | 5.9 nM |  |  |  |  | 
7 | CCc1cc(O)c(F)cc1-c1ccc2c(-c3nc4c([nH]3)CN(CC)C(C(=O)N(C)CCN(CC)CC)C4)n[nH]c2c1 (centres unmarked) [Example 12-8] |  | A (A represents between 60% and 80% inhibition) |  |  |  |  |  | 
8 | CCc1cc(O)c(F)cc1-c1ccc2c(-c3nc4c([nH]3)CN(CC)[C@@H](C(=O)N(C)CCN(CC)CC)C4)n[nH]c2c1 [Example 12-14, (R)—N-(2-(diethylamino)ethyl)-5-ethyl-2-(6-(2-ethyl-5-fluoro-4-hydroxyphenyl)-1H-indazol-3-yl)-N-methyl-4,5,6,7-tetrahydro-3H-imidazo[4,5-c]pyridine-6-carboxamide] | B (B denotes a ratio between 50 and 100) | B (B represents between 40% and 60% inhibition) | 3.3 nM | 0.06 nM |  |  |  | 0.2 nM
9 | CCc1cc(O)c(F)cc1-c1ccc2c(-c3nc4c([nH]3)CNC(C(=O)N3CCN(C(C)C)CC3)C4)n[nH]c2c1 (centres unmarked) [Example 1-2] |  |  | 7.8 nM | 0.05 nM |  | 0.03 nM | 0.08 nM | 0.16 nM
10 | CCc1cc(O)c(F)cc1-c1ccc2c(-c3nc4c([nH]3)CN(C(C)C)[C@H](C(=O)N3CCCN(C)CC3)C4)n[nH]c2c1 [Example 5, (S)-(2-(6-(2-ethyl-5-fluoro-4-hydroxyphenyl)-1H-indazol-3-yl)-5-isopropyl-4,5,6,7-tetrahydro-3H-imidazo[4,5-c]pyridin-6-yl)(4-methyl-1,4-diazepan-1-yl)methanone] | B (B denotes a ratio between 50 and 100) | B (B represents between 40% and 60% inhibition) | 6.5 nM | 0.08 nM |  |  |  | 0.2 nM
11 | CCCN1Cc2[nH]c(-c3n[nH]c4cc(-c5cc(F)c(O)cc5CC)ccc34)nc2C[C@H]1C(=O)N1CCN(CCO)CC1 [Example 7, (S)-(2-(6-(2-ethyl-5-fluoro-4-hydroxyphenyl)-1H-indazol-3-yl)-5-propyl-4,5,6,7-tetrahydro-3H-imidazo[4,5-c]pyridin-6-yl)(4-(2-hydroxyethyl)piperazin-1-yl)methanone] |  | B (B represents between 40% and 60% inhibition) | 5.4 nM | 0.06 nM | 91 |  |  | 
12 | CCCN1Cc2[nH]c(-c3n[nH]c4cc(-c5cc(F)c(O)cc5CC)ccc34)nc2CC1C(=O)N(C)C1CCN(C)CC1 (centres unmarked) [Example 13-6] | B (B denotes a ratio between 50 and 100) | B (B represents between 40% and 60% inhibition) |  |  |  |  |  | 
